This is an account of results in patent publication US11584734B2, “Tricyclic compounds as histone methyltransferase inhibitors” (GLOBAL BLOOD THERAPEUTICS, INC., priority 2017, dated 2023).

SMILES strings stand for the structures.

The test addresses T1, G9a (Homo sapiens, UniProt Q96KQ7).
T1 sequence (Q96KQ7 1-1210): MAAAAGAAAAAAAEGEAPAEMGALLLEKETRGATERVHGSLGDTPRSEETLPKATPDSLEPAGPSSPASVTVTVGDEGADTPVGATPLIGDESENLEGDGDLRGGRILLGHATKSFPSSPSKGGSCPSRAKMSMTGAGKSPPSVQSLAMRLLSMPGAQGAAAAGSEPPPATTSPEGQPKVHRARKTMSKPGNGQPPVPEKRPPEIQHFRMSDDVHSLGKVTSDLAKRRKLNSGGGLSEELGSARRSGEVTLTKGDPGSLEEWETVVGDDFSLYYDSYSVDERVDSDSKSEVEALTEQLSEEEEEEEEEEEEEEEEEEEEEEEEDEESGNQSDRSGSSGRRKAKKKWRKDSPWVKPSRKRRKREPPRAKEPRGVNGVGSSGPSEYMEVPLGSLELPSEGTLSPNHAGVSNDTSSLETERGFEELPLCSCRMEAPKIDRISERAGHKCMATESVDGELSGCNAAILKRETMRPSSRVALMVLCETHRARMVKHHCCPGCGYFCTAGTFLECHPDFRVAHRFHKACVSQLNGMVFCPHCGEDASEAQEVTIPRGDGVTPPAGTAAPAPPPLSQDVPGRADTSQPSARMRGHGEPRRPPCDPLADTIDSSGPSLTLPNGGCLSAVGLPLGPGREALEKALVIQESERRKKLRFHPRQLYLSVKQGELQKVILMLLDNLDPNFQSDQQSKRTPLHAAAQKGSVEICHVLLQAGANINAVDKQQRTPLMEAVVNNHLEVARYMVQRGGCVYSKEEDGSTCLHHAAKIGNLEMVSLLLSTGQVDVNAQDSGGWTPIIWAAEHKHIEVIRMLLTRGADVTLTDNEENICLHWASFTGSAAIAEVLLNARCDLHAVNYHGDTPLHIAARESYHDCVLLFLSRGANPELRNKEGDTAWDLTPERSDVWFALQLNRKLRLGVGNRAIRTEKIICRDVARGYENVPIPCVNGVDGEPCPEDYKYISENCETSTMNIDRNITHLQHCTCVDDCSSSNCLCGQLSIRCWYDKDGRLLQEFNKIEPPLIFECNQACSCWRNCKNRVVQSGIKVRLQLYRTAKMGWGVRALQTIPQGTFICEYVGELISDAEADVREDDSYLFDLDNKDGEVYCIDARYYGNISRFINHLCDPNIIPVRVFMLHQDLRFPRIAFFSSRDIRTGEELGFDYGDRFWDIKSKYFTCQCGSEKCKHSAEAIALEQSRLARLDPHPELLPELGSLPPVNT
The test can be described thus: G9a AlphaLISA enzymatic activity assay. The class given is biochemical. As to conditions: negative log of IC50 in molar, 0.15 nM G9a, 15 uM S-adenosyl-methionine, 100 nM biotinylated histone 3 peptide (1-21). The text has this: The G9a AlphaLISA assay was used to detect the methyl modifications of a biotinylated histone H3 peptide by the compounds. These modifications are done by the histone methyl transferase activity of the G9a enzyme. The assay consists of reading a chemiluminescent signal at 615 nm; this signal is generated by a laser excitation at 680 nm that transfers a reactive singlet oxygen between the donor beads and acceptor beads. Donor beads are streptavidin conjugated and bind to the biotin on the peptide. Acceptor beads are conjugated with an antibody that recognizes the specific G9a methyl mark on the peptide. If there is a methyl mark on the peptide, the acceptor beads will bind to the peptide. Upon binding, the acceptor beads will be in close proximity (<200 nm) of the donor beads and when the donor beads are excited, the transfer of the oxygen can occur and a strong signal will be generated. If there is no methyl mark, the interaction between beads will not occur and signal will be at background levels.
For the assay, the following buffer was used to set up reactions: 50 mM Tris-HCl pH9, 50 mM NaCl, 0.01% Tween-20 and 1 mM DTT (added fresh prior to starting the reactions). […] The reaction is incubated at rt for 1 hour and subsequently quenched by the addition of the acceptor beads (anti-H3k9me2 AlphaLISA acceptor beads, PerkinElmer #AL117) at a final concentration of 20 ug/mL. The acceptor beads are incubated for 1 hour. After 1 hour, the donor beads are added at a final concentration of 20 ug/mL (Alpha Streptavidin donor beads, PerkinElmer #6760002). Donor beads are incubated for 0.5 hours. Both donor and acceptor beads are resuspended in AlphaLISA 5X Epigenetics Buffer 1 Kit (PerkinElmer #AL008) prior to addition to the reaction. All manipulations and incubations with the donor and acceptor beads are done in subdued light. Signal is detected in an EnVision plate reader in Alpha mode. See ACS Med Chem Lett. 2014; 5(2):205-9.
Percent inhibition was calculated for each compound dilution and the concentration that produced 50% inhibition was calculated. This value is presented as the pIC50, which is the negative log of the IC50 value in molar.
The term IC50 denotes the concentration that inhibits the measured activity by half. The low end stands for greater potency, the high end for weaker potency. For the compound `CNc1c2c(nc3cc(OC(C)CCN4CCCC4)c(OC)cc13)CCC2` (centres unmarked) [Example 65, 7-methoxy-N-methyl-6-{[4-(pyrrolidin-1-yl)butan-2-yl]oxy}-1H,2H,3H-cyclopenta[b]quinolin-9-amine], the IC50 was 72.4 nM. The result for `COCCNc1c2c(nc3cc(OCCCN4CCCC4)c(OC)cc13)CCC2(C)C` [Example 23, 7-methoxy-N-(2-methoxyethyl)-1,1-dimethyl-6-[3-(pyrrolidin-1-yl)propoxy]-1H,2H,3H-cyclopenta[b]quinolin-9-amine] reads 468 nM. The same measure for `COc1cc2c(NC[C@H]3CCCO3)c3c(nc2cc1OCCCN1CCCC1)CCC3` [Example 18, 7-methoxy-N-{[(2R)-oxolan-2-yl]methyl}-6-[3-(pyrrolidin-1-yl)propoxy]-1H,2H,3H-cyclopenta[b]quinolin-9-amine]: 21.9 nM. The compound `COC[C@H](C)Nc1c2c(nc3cc(OCCCN4CCCC4)c(OC)cc13)CCCCC2` [Example 38, 2-methoxy-N-[(2S)-1-methoxypropan-2-yl]-3-[3-(pyrrolidin-1-yl)propoxy]-6H,7H,8H,9H,10H-cyclohepta[b]quinolin-11-amine] gave an IC50 of 214 nM.

Take `CCCOCCCNc1c2c(nc3cc(OCCCN4CCCC4)c(OC)cc13)CCC2` [Example 12, 7-methoxy-N-(3-propoxypropyl)-6-[3-(pyrrolidin-1-yl)propoxy]-1H,2H,3H-cyclopenta[b]quinolin-9-amine]: inhibition was half-maximal at 8.32 nM (IC50). The same measure for `CNc1c2c(nc3cc(OCCCN4CCCC4)c(OC)cc13)CC(C)(C)C2` [Example 24, 7-methoxy-N,2,2-trimethyl-6-[3-(pyrrolidin-1-yl)propoxy]-1H,2H,3H-cyclopenta[b]quinolin-9-amine]: 24 nM; for `CNc1c2c(nc3cc(OCCCN4CCCC4)c(OC(F)(F)F)cc13)CCC2` [Example 48, N-methyl-6-[3-(pyrrolidin-1-yl)propoxy]-7-(trifluoromethoxy)-1H,2H,3H-cyclopenta[b]quinolin-9-amine]: 603 nM; for `COc1cc2c(NCC3CC3)c3c(nc2cc1OCC(O)CN1CCCC1)CCC3` (centres unmarked) [Example 40, 1-({9-[(cyclopropylmethyl)amino]-7-methoxy-1H,2H,3H-cyclopenta[b]quinolin-6-yl}oxy)-3-(pyrrolidin-1-yl)propan-2-ol]: 40.7 nM. The result for `CCOCCNc1c2c(nc3cc(OCCCN4CCCC4)c(OC)cc13)CCC2` [Example 10, N-(2-ethoxyethyl)-7-methoxy-6-[3-(pyrrolidin-1-yl)propoxy]-1H,2H,3H-cyclopenta[b]quinolin-9-amine] reads 6.31 nM. The same measure for `COc1cc2c(NCC3CNC3)c3c(nc2cc1OCCCN1CCCC1)CCC3` [Example 67, N-[(azetidin-3-yl)methyl]-7-methoxy-6-[3-(pyrrolidin-1-yl)propoxy]-1H,2H,3H-cyclopenta[b]quinolin-9-amine]: 1.35 nM; for `COc1cc2c(NCc3ccn[nH]3)c3c(nc2cc1OCCCN1CCCC1)CCC3` [Example 9, 7-methoxy-N-[(1H-pyrazol-5-yl)methyl]-6-[3-(pyrrolidin-1-yl)propoxy]-1H,2H,3H-cyclopenta[b]quinolin-9-amine]: 12 nM. As for `CNc1c2c(nc3cc(OCCCN4CCCC4)c(OC)cc13)CCCCC2` [Example 19, 2-methoxy-N-methyl-3-[3-(pyrrolidin-1-yl)propoxy]-6H,7H,8H,9H,10H-cyclohepta[b]quinolin-11-amine], the IC50 was 7.94 nM. This IC50 is about 1.5-fold lower than that of the compound before. On to `COc1cc2c(NC[C@H](C)OC)c3c(nc2cc1OCCCN1CCCC1)CCC3` [Example 15, 7-methoxy-N-[(2S)-2-methoxypropyl]-6-[3-(pyrrolidin-1-yl)propoxy]-1H,2H,3H-cyclopenta[b]quinolin-9-amine], for which half-maximal inhibition (IC50) was put at 22.4 nM. The result for `COc1cc2c(NCCOC(C)C)c3c(nc2cc1OCCCN1CCCC1)CCC3` [Example 13, 7-methoxy-N-[2-(propan-2-yloxy)ethyl]-6-[3-(pyrrolidin-1-yl)propoxy]-1H,2H,3H-cyclopenta[b]quinolin-9-amine] reads 31.6 nM.
